Data on twelve molecules can be found in patent US7064139B2, “Method for treating retroviral infections” (Uniroyal Chemical Company, Inc., priority 2001, dated 2006).

Converted amounts (≈) assume the structure as drawn. A value given as a limit tells only on which side of the number the result lay.

The first test deals with Davis strain CMV. Nature of the test: Reduction of CMV-induced cytopathicity in HEL cells. In kind it is cell-based, human cytomegalovirus (HCMV). The settings on record: HEL cells, estimate of percent protection at the concentration in the previous column. The method, then:
Confluent HEL cells grown in […] microtiter plates were inoculated with CMV at an input of 100 PFU (plaque forming units) per well. After a one to two hour incubation period, residual virus was removed and the infected cells were further incubated with MEM (Minimal Essential Medium) (supplemented with 2% inactivated Fetal Calf Serum (FCS), […], and 0.3% sodium bicarbonate) containing varying concentrations of the test compounds. Antiviral activity was expressed as EC50 (50% effective concentration), or test compound concentration required to reduce virus-induced cytopathicity after seven days by 50% compared to the untreated control.
In some cases, the compounds had considerable cytotoxicity against HEL cells, which made determination of the EC50 difficult. In these cases, an estimate of the percent protection at the compound concentration indicated in the previous columns is given.
`Cc1ccc(C)c(C(Cl)S(=O)(=O)c2cccc(C)[n+]2[O-])c1` (centres unmarked) [Compound 73]: the “Antiviral % Inhibition Davis strain CMV” value is listed as 40.0%.

For `O=S(=O)(Cc1ccccc1I)c1cccc[n+]1[O-]` [Compound 44], the “Antiviral % Inhibition Davis strain CMV” value is listed as 20.0%.

For `[O-][n+]1ccccc1SCc1ccccc1` [Compound 4], the “Antiviral % Inhibition Davis strain CMV” value is reported as 0.0%.

In the case of `Cc1ccc[n+]([O-])c1S(=O)(=O)C(C)c1ccccc1` (centres unmarked) [Compound 115], the “Antiviral % Inhibition Davis strain CMV” value was 40.0%.

As for `Cc1ccc[n+]([O-])c1[S+]([O-])Cc1c(Cl)cccc1Cl` (centres unmarked) [Compound 138], the “Antiviral % Inhibition Davis strain CMV” value is listed as 20.0%.

`O=S(=O)(Cc1ccccc1)c1ccccn1` [Compound 143]: the “Antiviral % Inhibition Davis strain CMV” value is 0.0%.

The test is the same for the next values; noted with them: HEL cells, virus-induced cytopathicity after seven days.
As for `COc1ccc(C)cc1CS(=O)(=O)c1cccc[n+]1[O-]` [Compound 30], the “Antiviral EC50 (ug/ml) Davis strain CMV” value stood at 37.0 µg/mL.

For `CC(C)Cc1ccc(CS(=O)(=O)c2cccc[n+]2[O-])cc1` [Compound 55], the “Antiviral EC50 (ug/ml) Davis strain CMV” value came to 3.2 µg/mL.

For `Cc1ccc(CS(=O)(=O)c2cccc[n+]2[O-])c(C)c1` [Compound 52], the “Antiviral EC50 (ug/ml) Davis strain CMV” value came out at 12.0 µg/mL.

Regarding `Cc1ccc(C)c(C(Cl)S(=O)(=O)c2cccc(C)[n+]2[O-])c1` (centres unmarked) [Compound 73], the “Antiviral EC50 (ug/ml) Davis strain CMV” value is above 20 µg/mL.

On to `O=S(=O)(Cc1ccccc1I)c1cccc[n+]1[O-]` [Compound 44], for which the “Antiviral EC50 (ug/ml) Davis strain CMV” value was above 20 µg/mL.

For the molecule `Cc1c(Cl)c(Cl)c(CS(=O)(=O)c2cccc[n+]2[O-])c(Cl)c1Cl` [Compound 49], the “Antiviral EC50 (ug/ml) Davis strain CMV” value worked out at 5.0 µg/mL.

With `[O-][n+]1ccccc1SCc1ccccc1` [Compound 4], the “Antiviral EC50 (ug/ml) Davis strain CMV” value is above 50 µg/mL.

As for `COc1ccc(CS(=O)(=O)c2cc(C(C)(C)C)cc[n+]2[O-])cc1` [Compound 135], the “Antiviral EC50 (ug/ml) Davis strain CMV” value stood at 12.5 µg/mL.

Consider `COc1ccc(CSc2cc(CC(C)C)cc[n+]2[O-])cc1` [Compound 134], for which the “Antiviral EC50 (ug/ml) Davis strain CMV” value was found to be 50.0 µg/mL.

`Cc1ccc[n+]([O-])c1S(=O)(=O)C(C)c1ccccc1` (centres unmarked) [Compound 115]: the “Antiviral EC50 (ug/ml) Davis strain CMV” value is above 50 µg/mL.

For the molecule `Cc1ccc[n+]([O-])c1[S+]([O-])Cc1c(Cl)cccc1Cl` (centres unmarked) [Compound 138], the “Antiviral EC50 (ug/ml) Davis strain CMV” value was above 50 µg/mL.

Take `O=S(=O)(Cc1ccccc1)c1ccccn1` [Compound 143]: the “Antiviral EC50 (ug/ml) Davis strain CMV” value is above 50 µg/mL.

Another test concerns HIV-1 (IIIB). The experiment in a line: microbe, parasite or virus in culture. The test is classed as cell-based. The settings on record: CEM cells, syncytium formation, day four post infection. From the text: (§1) The cell type used to determine activity of the compounds of the invention herein, i.e., the test compounds, against HIV was human T-lymphoblast (CEM) cells obtained from the American Tissue Cell Culture Collection (Rockville, Md.). HIV-1 (IIIB) was originally obtained from the culture of persistently HIV-1 infected H9 cells and was provided by R. C. Gallo and M. Popovic (National Cancer Institute, National Institutes of Health, Bethesda, Md.). HIV-2 (ROD) was originally obtained from L. M. Montagnier (Pasteur Institute, Paris, France).
(§2) To determine the antiviral activity of the test compounds, CEM cells were suspended at a cell density of approximately 300,000 cells per ml of culture medium and infected with approximately 100 CCID50 (100 CCID50 being the 50% cell culture infective dose) of HIV-1 (IIIB) or HIV-2 (ROD)). Then 100 μl of the infected cell suspensions was added to 200 μl micro titer plate wells containing 100 μl of appropriate serial (5-fold) dilutions of the test compounds. The inhibitory effect of the test compounds on HIV-1 or HIV-2 syncytium formation in CEM cells was examined microscopically on day four post infection.
(§3) In these cases, the percent protection of the cells against virus-induced cytopathicity by the test compounds at the indicated compound concentration in the previous column is given.
Consider `COc1ccc(C)cc1CS(=O)(=O)c1cccc[n+]1[O-]` [Compound 30], for which the “EC50 (ug/ml) HIV-1” value came out at 1.60 µg/mL (≈ 5.45 µM).

For the molecule `CC(C)Cc1ccc(CS(=O)(=O)c2cccc[n+]2[O-])cc1` [Compound 55], the “EC50 (ug/ml) HIV-1” value is “≧4 ug/ml”.

Take `Cc1ccc(CS(=O)(=O)c2cccc[n+]2[O-])c(C)c1` [Compound 52]: the “EC50 (ug/ml) HIV-1” value is 6.00 µg/mL (≈ 21.6 µM).

For the molecule `Cc1ccc(C)c(C(Cl)S(=O)(=O)c2cccc(C)[n+]2[O-])c1` (centres unmarked) [Compound 73], the “EC50 (ug/ml) HIV-1” value came to 2.80 µg/mL (≈ 8.59 µM).

For `O=S(=O)(Cc1ccccc1I)c1cccc[n+]1[O-]` [Compound 44], the “EC50 (ug/ml) HIV-1” value worked out at 5.30 µg/mL (≈ 14.1 µM).

Take `Cc1c(Cl)c(Cl)c(CS(=O)(=O)c2cccc[n+]2[O-])c(Cl)c1Cl` [Compound 49]: the “EC50 (ug/ml) HIV-1” value is on record as “≧.8 ug/ml”.

Turning to `[O-][n+]1ccccc1SCc1ccccc1` [Compound 4], the “EC50 (ug/ml) HIV-1” value is “≧100 ug/ml”.

As to `COc1ccc(CS(=O)(=O)c2cc(C(C)(C)C)cc[n+]2[O-])cc1` [Compound 135], the “EC50 (ug/ml) HIV-1” value was above 20 µg/mL.

Consider `COc1ccc(CSc2cc(CC(C)C)cc[n+]2[O-])cc1` [Compound 134], for which the “EC50 (ug/ml) HIV-1” value was above 20 µg/mL.

On to `Cc1ccc[n+]([O-])c1S(=O)(=O)C(C)c1ccccc1` (centres unmarked) [Compound 115], for which the “EC50 (ug/ml) HIV-1” value is above 20 µg/mL.

As for `Cc1ccc[n+]([O-])c1[S+]([O-])Cc1c(Cl)cccc1Cl` (centres unmarked) [Compound 138], the “EC50 (ug/ml) HIV-1” value is above 100 µg/mL.

Regarding `O=S(=O)(Cc1ccccc1)c1ccccn1` [Compound 143], the “EC50 (ug/ml) HIV-1” value is 30.00 µg/mL (≈ 129 µM).

Still in this test, the particulars now being: protection of CEM cells against virus-induced cytopathicity at the concentration in the previous column.
For `CC(C)Cc1ccc(CS(=O)(=O)c2cccc[n+]2[O-])cc1` [Compound 55], the “HIV-1 % Protection” value amounted to 37.5%.

For the molecule `Cc1c(Cl)c(Cl)c(CS(=O)(=O)c2cccc[n+]2[O-])c(Cl)c1Cl` [Compound 49], the “HIV-1 % Protection” value was found to be 37.5%.

As to `[O-][n+]1ccccc1SCc1ccccc1` [Compound 4], the “HIV-1 % Protection” value stood at 37.5%.

Regarding `COc1ccc(CS(=O)(=O)c2cc(C(C)(C)C)cc[n+]2[O-])cc1` [Compound 135], the “HIV-1 % Protection” value was 0.0%.

With `COc1ccc(CSc2cc(CC(C)C)cc[n+]2[O-])cc1` [Compound 134], the “HIV-1 % Protection” value came out at 0.0%.

Consider `Cc1ccc[n+]([O-])c1S(=O)(=O)C(C)c1ccccc1` (centres unmarked) [Compound 115], for which the “HIV-1 % Protection” value stood at 0.0%.

Turning to `Cc1ccc[n+]([O-])c1[S+]([O-])Cc1c(Cl)cccc1Cl` (centres unmarked) [Compound 138], the “HIV-1 % Protection” value was determined as 0.0%.

Another test deals with HIV-2 (ROD). Nature of the test: Inhibition of HIV-2 syncytium formation in CEM cells. The settings on record: CEM cells, syncytium formation, day four post infection. The test is classed as cell-based.
Text: as §1, §2, §3
In the case of `COc1ccc(C)cc1CS(=O)(=O)c1cccc[n+]1[O-]` [Compound 30], the “EC50 (ug/ml) HIV-2” value was determined as 14.0 µg/mL (≈ 47.7 µM).

For the molecule `CC(C)Cc1ccc(CS(=O)(=O)c2cccc[n+]2[O-])cc1` [Compound 55], the “EC50 (ug/ml) HIV-2” value worked out at 2.6 µg/mL (≈ 8.51 µM).

As to `Cc1ccc(CS(=O)(=O)c2cccc[n+]2[O-])c(C)c1` [Compound 52], the “EC50 (ug/ml) HIV-2” value turned out to be 6.5 µg/mL (≈ 23.4 µM).

As to `Cc1ccc(C)c(C(Cl)S(=O)(=O)c2cccc(C)[n+]2[O-])c1` (centres unmarked) [Compound 73], the “EC50 (ug/ml) HIV-2” value was above 100.0 µg/mL.

Turning to `O=S(=O)(Cc1ccccc1I)c1cccc[n+]1[O-]` [Compound 44], the “EC50 (ug/ml) HIV-2” value was determined as 3.4 µg/mL (≈ 9.06 µM).

As to `Cc1c(Cl)c(Cl)c(CS(=O)(=O)c2cccc[n+]2[O-])c(Cl)c1Cl` [Compound 49], the “EC50 (ug/ml) HIV-2” value is on record as “≧.8 ug/ml”.

`[O-][n+]1ccccc1SCc1ccccc1` [Compound 4]: the “EC50 (ug/ml) HIV-2” value was above 100 µg/mL.

Regarding `COc1ccc(CS(=O)(=O)c2cc(C(C)(C)C)cc[n+]2[O-])cc1` [Compound 135], the “EC50 (ug/ml) HIV-2” value is above 20.00 µg/mL.

Take `COc1ccc(CSc2cc(CC(C)C)cc[n+]2[O-])cc1` [Compound 134]: the “EC50 (ug/ml) HIV-2” value was above 100.0 µg/mL.

Turning to `Cc1ccc[n+]([O-])c1S(=O)(=O)C(C)c1ccccc1` (centres unmarked) [Compound 115], the “EC50 (ug/ml) HIV-2” value was above 20.00 µg/mL.

As for `Cc1ccc[n+]([O-])c1[S+]([O-])Cc1c(Cl)cccc1Cl` (centres unmarked) [Compound 138], the “EC50 (ug/ml) HIV-2” value is above 100.0 µg/mL.

Consider `O=S(=O)(Cc1ccccc1)c1ccccn1` [Compound 143], for which the “EC50 (ug/ml) HIV-2” value stood at 50.0 µg/mL (≈ 214 µM).

The test is the same for the next values; noted with them: protection of CEM cells against virus-induced cytopathicity at the concentration in the previous column.
In the case of `Cc1ccc(C)c(C(Cl)S(=O)(=O)c2cccc(C)[n+]2[O-])c1` (centres unmarked) [Compound 73], the “HIV-2 % Protection” value stood at 0.0%.

Consider `Cc1c(Cl)c(Cl)c(CS(=O)(=O)c2cccc[n+]2[O-])c(Cl)c1Cl` [Compound 49], for which the “HIV-2 % Protection” value was determined as 37.5%.

With `[O-][n+]1ccccc1SCc1ccccc1` [Compound 4], the “HIV-2 % Protection” value is on record as 0.0%.

Take `COc1ccc(CS(=O)(=O)c2cc(C(C)(C)C)cc[n+]2[O-])cc1` [Compound 135]: the “HIV-2 % Protection” value was found to be 0.0%.

Turning to `COc1ccc(CSc2cc(CC(C)C)cc[n+]2[O-])cc1` [Compound 134], the “HIV-2 % Protection” value is 0.0%.

For `Cc1ccc[n+]([O-])c1S(=O)(=O)C(C)c1ccccc1` (centres unmarked) [Compound 115], the “HIV-2 % Protection” value is listed as 0.0%.

With `Cc1ccc[n+]([O-])c1[S+]([O-])Cc1c(Cl)cccc1Cl` (centres unmarked) [Compound 138], the “HIV-2 % Protection” value came out at 0.0%.
